Tested on: 922993-354-T-J3-PDC complex spheroid viability
Test: Anticancer human tumor 922993-354-T-J3-PDC patient-derived endometrial carcinoma cell line growth inhibition [POLQ]
Conditions: for IC50: curve of first compound; for viability, T/C: stronger effect = lower value
Summary of the method: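 Complex spheroid viability model combining PDC tumour cells with endothelial (HUVEC) and MSC stromal cells. Novobiocin, ART-558 or RP6685 were tested singly and in combination with standard and investigational anticancer drugs. Each was titrated in half-log steps from near clinical Cmax, or from 10 microM where Cmax was unknown.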

[1] = second compound 0.0316 µM, first compound 0.0316 µM
[2] = second compound 0.0316 µM, first compound 0.1 µM
[3] = second compound 0.0316 µM, first compound 0.316 µM
[4] = second compound 0.0316 µM, first compound 1 µM
[5] = second compound 0.0316 µM, first compound 3.16 µM
[6] = second compound 0.0316 µM, first compound 10 µM
[7] = second compound 0.1 µM, first compound 0.0316 µM
[8] = second compound 0.1 µM, first compound 0.1 µM
[9] = second compound 0.1 µM, first compound 0.316 µM
[10] = second compound 0.1 µM, first compound 1 µM
[11] = second compound 0.1 µM, first compound 3.16 µM
[12] = second compound 0.1 µM, first compound 10 µM
[13] = second compound 0.316 µM, first compound 0.0316 µM
[14] = second compound 0.316 µM, first compound 0.1 µM
[15] = second compound 0.316 µM, first compound 0.316 µM
[16] = second compound 0.316 µM, first compound 1 µM
[17] = second compound 0.316 µM, first compound 3.16 µM
[18] = second compound 0.316 µM, first compound 10 µM
[19] = second compound 1 µM, first compound 0.0316 µM
[20] = second compound 1 µM, first compound 0.1 µM
[21] = second compound 1 µM, first compound 0.316 µM
[22] = second compound 1 µM, first compound 1 µM
[23] = second compound 1 µM, first compound 3.16 µM
[24] = second compound 1 µM, first compound 10 µM
[25] = second compound 3.16 µM, first compound 0.0316 µM
[26] = second compound 3.16 µM, first compound 0.1 µM
[27] = second compound 3.16 µM, first compound 0.316 µM
[28] = second compound 3.16 µM, first compound 1 µM
[29] = second compound 3.16 µM, first compound 3.16 µM
[30] = second compound 3.16 µM, first compound 10 µM
[31] = second compound 10 µM, first compound 0.0316 µM
[32] = second compound 10 µM, first compound 0.1 µM
[33] = second compound 10 µM, first compound 0.316 µM
[34] = second compound 10 µM, first compound 1 µM
[35] = second compound 10 µM, first compound 3.16 µM
[36] = second compound 10 µM, first compound 10 µM
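Further: spheroids exposed to the agents for one week.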
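Wherever viability, T/C is given: 100% = DMSO vehicle control wells.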

SMILES: CC1COCCN1c1cc(-c2ccnn2C)c2ccnc(-c3ccn[nH]3)c2n1 (stereo not drawn) + Cc1cccc(N(C)C(=O)C2C(O)CCN2c2nc(C)cc(C(F)(F)F)c2C#N)c1
- IC50 (second compound 0.0316 µM): 167 nM
- IC50 (second compound 0.1 µM): 137 nM
- IC50 (second compound 0.316 µM): 197 nM
- IC50 (second compound 1 µM): 164 nM
- IC50 (second compound 3.16 µM): 174 nM
- IC50 (second compound 10 µM): 166 nM
- viability, T/C [1]: 99.9%
- viability, T/C [2]: 63.3%
- viability, T/C [3]: 35.3%
- viability, T/C [4]: 10.8%
- viability, T/C [5]: 10.2%
- viability, T/C [6]: 9.85%
- viability, T/C [7]: 96.1%
- viability, T/C [8]: 58.2%
- viability, T/C [9]: 28.4%
- viability, T/C [10]: 13.8%
- viability, T/C [11]: 8.45%
- viability, T/C [12]: 10.4%
- viability, T/C [13]: 97.5%
- viability, T/C [14]: 75.9%
- viability, T/C [15]: 32.9%
- viability, T/C [16]: 8.6%
- viability, T/C [17]: 9.15%
- viability, T/C [18]: 10.9%
- viability, T/C [19]: 105%
- viability, T/C [20]: 64.6%
- viability, T/C [21]: 31.4%
- viability, T/C [22]: 11.2%
- viability, T/C [23]: 8.14%
- viability, T/C [24]: 9.87%
- viability, T/C [25]: 87.2%
- viability, T/C [26]: 71.5%
- viability, T/C [27]: 26.9%
- viability, T/C [28]: 10.6%
- viability, T/C [29]: 8.05%
- viability, T/C [30]: 9.86%
- viability, T/C [31]: 92.5%
- viability, T/C [32]: 66.5%
- viability, T/C [33]: 28.7%
- viability, T/C [34]: 14.1%
- viability, T/C [35]: 9.35%
- viability, T/C [36]: 8.57%

SMILES: CC1COCCN1c1cc(C2(S(C)(=N)=O)CC2)nc(-c2ccnc3[nH]ccc23)n1 (stereo not drawn) + Cc1cccc(N(C)C(=O)C2C(O)CCN2c2nc(C)cc(C(F)(F)F)c2C#N)c1
- IC50 (second compound 0.0316 µM): > 10000 nM
- IC50 (second compound 0.1 µM): > 10000 nM
- IC50 (second compound 0.316 µM): > 10000 nM
- IC50 (second compound 1 µM): > 10000 nM
- IC50 (second compound 3.16 µM): 8080 nM
- IC50 (second compound 10 µM): 4880 nM
- viability, T/C [1]: 99.8%
- viability, T/C [2]: 95.3%
- viability, T/C [3]: 95%
- viability, T/C [4]: 105%
- viability, T/C [5]: 93.3%
- viability, T/C [6]: 53%
- viability, T/C [7]: 112%
- viability, T/C [8]: 95.4%
- viability, T/C [9]: 97.1%
- viability, T/C [10]: 99.7%
- viability, T/C [11]: 82.6%
- viability, T/C [12]: 62.9%
- viability, T/C [13]: 102%
- viability, T/C [14]: 100%
- viability, T/C [15]: 104%
- viability, T/C [16]: 101%
- viability, T/C [17]: 77.5%
- viability, T/C [18]: 56.8%
- viability, T/C [19]: 96.5%
- viability, T/C [20]: 105%
- viability, T/C [21]: 99.3%
- viability, T/C [22]: 88.9%
- viability, T/C [23]: 86.9%
- viability, T/C [24]: 56%
- viability, T/C [25]: 101%
- viability, T/C [26]: 96.8%
- viability, T/C [27]: 103%
- viability, T/C [28]: 93.1%
- viability, T/C [29]: 85.7%
- viability, T/C [30]: 42.1%
- viability, T/C [31]: 98.5%
- viability, T/C [32]: 94%
- viability, T/C [33]: 96.8%
- viability, T/C [34]: 91.5%
- viability, T/C [35]: 71.4%
- viability, T/C [36]: 14.7%

SMILES: CCCS(=O)(=O)Nc1ccc(F)c(C(=O)c2c[nH]c3ncc(-c4ccc(Cl)cc4)cc23)c1F + Cc1cccc(N(C)C(=O)C2C(O)CCN2c2nc(C)cc(C(F)(F)F)c2C#N)c1
- IC50 (second compound 0.0316 µM): > 10000 nM
- IC50 (second compound 0.1 µM): > 10000 nM
- IC50 (second compound 0.316 µM): > 10000 nM
- IC50 (second compound 1 µM): > 10000 nM
- IC50 (second compound 3.16 µM): > 10000 nM
- IC50 (second compound 10 µM): > 10000 nM
- viability, T/C [1]: 103%
- viability, T/C [2]: 99.5%
- viability, T/C [3]: 103%
- viability, T/C [4]: 98.1%
- viability, T/C [5]: 106%
- viability, T/C [6]: 97.5%
- viability, T/C [7]: 101%
- viability, T/C [8]: 102%
- viability, T/C [9]: 103%
- viability, T/C [10]: 100%
- viability, T/C [11]: 102%
- viability, T/C [12]: 90.1%
- viability, T/C [13]: 104%
- viability, T/C [14]: 101%
- viability, T/C [15]: 105%
- viability, T/C [16]: 104%
- viability, T/C [17]: 103%
- viability, T/C [18]: 95.8%
- viability, T/C [19]: 102%
- viability, T/C [20]: 99.8%
- viability, T/C [21]: 100%
- viability, T/C [22]: 103%
- viability, T/C [23]: 105%
- viability, T/C [24]: 95%
- viability, T/C [25]: 102%
- viability, T/C [26]: 103%
- viability, T/C [27]: 101%
- viability, T/C [28]: 97.7%
- viability, T/C [29]: 107%
- viability, T/C [30]: 94.5%
- viability, T/C [31]: 98.6%
- viability, T/C [32]: 103%
- viability, T/C [33]: 104%
- viability, T/C [34]: 100%
- viability, T/C [35]: 108%
- viability, T/C [36]: 93.2%

SMILES: Cn1ncnc1[C@H]1c2n[nH]c(=O)c3cc(F)cc(c23)N[C@@H]1c1ccc(F)cc1 + Cc1cccc(N(C)C(=O)C2C(O)CCN2c2nc(C)cc(C(F)(F)F)c2C#N)c1
- IC50 (second compound 0.0316 µM): > 100 nM
- IC50 (second compound 0.1 µM): > 100 nM
- IC50 (second compound 0.316 µM): > 100 nM
- IC50 (second compound 1 µM): > 100 nM
- IC50 (second compound 3.16 µM): 83 nM
- IC50 (second compound 10 µM): 30.7 nM
- viability, T/C (second compound 0.0316 µM, first compound 0.000316 µM): 97.8%
- viability, T/C (second compound 0.0316 µM, first compound 0.001 µM): 95.5%
- viability, T/C (second compound 0.0316 µM, first compound 0.00316 µM): 111%
- viability, T/C (second compound 0.0316 µM, first compound 0.01 µM): 98.3%
- viability, T/C [1]: 99%
- viability, T/C [2]: 70.2%
- viability, T/C (second compound 0.1 µM, first compound 0.000316 µM): 108%
- viability, T/C (second compound 0.1 µM, first compound 0.001 µM): 105%
- viability, T/C (second compound 0.1 µM, first compound 0.00316 µM): 94.2%
- viability, T/C (second compound 0.1 µM, first compound 0.01 µM): 94.4%
- viability, T/C [7]: 90.2%
- viability, T/C [8]: 74.9%
- viability, T/C (second compound 0.316 µM, first compound 0.000316 µM): 107%
- viability, T/C (second compound 0.316 µM, first compound 0.001 µM): 106%
- viability, T/C (second compound 0.316 µM, first compound 0.00316 µM): 102%
- viability, T/C (second compound 0.316 µM, first compound 0.01 µM): 106%
- viability, T/C [13]: 91.2%
- viability, T/C [14]: 67.2%
- viability, T/C (second compound 1 µM, first compound 0.000316 µM): 107%
- viability, T/C (second compound 1 µM, first compound 0.001 µM): 108%
- viability, T/C (second compound 1 µM, first compound 0.00316 µM): 111%
- viability, T/C (second compound 1 µM, first compound 0.01 µM): 96.8%
- viability, T/C [19]: 97.4%
- viability, T/C [20]: 66.2%
- viability, T/C (second compound 3.16 µM, first compound 0.000316 µM): 100%
- viability, T/C (second compound 3.16 µM, first compound 0.001 µM): 101%
- viability, T/C (second compound 3.16 µM, first compound 0.00316 µM): 99.9%
- viability, T/C (second compound 3.16 µM, first compound 0.01 µM): 96.8%
- viability, T/C [25]: 92.3%
- viability, T/C [26]: 41.6%
- viability, T/C (second compound 10 µM, first compound 0.000316 µM): 111%
- viability, T/C (second compound 10 µM, first compound 0.001 µM): 97.4%
- viability, T/C (second compound 10 µM, first compound 0.00316 µM): 99%
- viability, T/C (second compound 10 µM, first compound 0.01 µM): 72.9%
- viability, T/C [31]: 49.8%
- viability, T/C [32]: 32%

Source: PubChem BioAssay AID1963830 (Molecular Pharmacology Branch, DTP, NCI, 2024)
